One series addresses T1, CB1 receptors (Mus musculus, UniProt P47746).
T1 construct: the complete brain (excluding the cerebellum) and the spleen were quickly dissected and kept in ice; from tissue; host or cells: mouse brain (excluding cerebellum), membrane preparation
The series is described as follows: biochemical. It counts as binding. The protocol: (§1) The affinity of the synthesized compounds towards the CB1 and CB2 cannabinoidergic receptors was evaluated in vitro by radioreceptor binding studies using the method reported hereinunder.
(§2) The technique of the receptor binding allows to establish if, and with which affinity and specificity, a specific compound binds to a particular receptor. To evaluate the affinity of a specific compound to a particular receptor it is necessary to challenge in a particular tissue preparation wherein those specific receptors are present the compound to be tested with a radioactive labelled compound whose affinity for the same receptors is known. […] The amount of radioactivity present in the receptor-compound complex allows furthermore to estimate with great accuracy the amount of compound bound to the receptor. By said method it is therefore possible to establish quickly the affinity of a new compound towards a specific receptor and thus to determine its pharmacological activity. With the same experimental protocol it is possible to evaluate the affinity of the compound towards other receptors and thus establish its specificity degree toward said other receptors.
(§3) The food and water were ad libitum.
(§4) The procedure adopted, based on the use of the compound [^3H]-CP-55,940 (New England Nuclear, Boston, Mass., USA), requires the use of the mouse brain as biological tissue for the evaluation of the affinity towards the CB1 receptors and of the mouse spleen for the affinity assay for the CB2 receptors.
(§5) The animals were sacrificed by cervical dislocation and the complete brain (excluding the cerebellum) and the spleen were quickly dissected and kept in ice.
(§6) The tissue was homogenized in 15 volumes (weight/volume) of TME buffer (50 Mm Tris, 1 mM EDTA and 3 mM MgCl2, pH 7.4) by an Ultra-Turrax and subsequently centrifuged for 10 minutes at 1086×g in a centrifuge refrigerated at 4° C. The recovered supernatant was centrifuged at 45,000×g for 30 minutes at 4° C. by using a Beckman SW41 rotor and the obtained pellet was resuspended in 50 volumes of TME.
(§7) The thus obtained membranes (50-80 μg of proteins) were incubated in the presence of 1 nM of [^3H]-CP55.940 for 1 hour at 30° C. in a final volume of 0.5 ml of TME buffer containing 5 mg/ml of bovine serum albumin (BSA). The non specific binding was measured in the presence of CP55.940 at a 1 μM concentration.
(§8) All the experiments were carried out in polypropylene test tubes pretreated with Sigma-Cote (Sigma Chemical Co. Ltd., Poole, UK) for reducing non specific binding.
(§9) In order to determine the competitive inhibition binding curves, eight different concentrations of each compound were used.
(§10) Incubation was stopped by addition of TME buffer (at 4° C.) containing 5 mg/ml of BSA, and subsequent filtration under vacuum by Whatman GFC filters pretreated with 0.5% of polyethylamine (PEI) and by using a filtering device (Brandell, Gaithersburg, Md., USA). The filters were washed 3 times with […] of Tris HCl buffer (pH 7.4, 4° C.) containing 1 mg/ml of BSA and separately placed in plastic vials containing 4 ml of scintillating liquid (Ultima Gold MV, Packard).
(§11) The radioactivity present in the filters was determined by a scintillator spectrophotometer (Tricarb® 2100, Packard, Meridien, USA).
(§12) Protein determination was carried out by the Bradford method by using the protocol and the reactants supplied by Bio-Rad (Milano, Italy).

In a further series the target is T2, CB2 receptors (Mus musculus, UniProt P47936).
T2 construct: the complete brain (excluding the cerebellum) and the spleen were quickly dissected and kept in ice; from tissue; host or cells: mouse spleen, membrane preparation
The series is described as follows: biochemical. The series is classed as binding. On the procedure: as §1, §2, §3, §4, §5, §6, §7, §8, §9, §10, §11, §12

The next series has as its system old DBA/2J mice. The series is described as follows: Reduction of intraocular pressure (IOP) after application to the eye, TONOLab tonometer. It counts as in vivo. The note with it: versus basal IOP. The text has this: The main risk factor in the glaucoma is represented by the high intraocular pressure (IOP). See for instance: Libby R. T. et al., Vis Neurosci. 2005 Sep.-Oct., 22(5):637-48 and Tomida I. et al., Br. J. Opthalmol. 2004 May, 88(5):708-13.
By using the animal model of old DBA/2J mice (see above) it has been evaluated the efficacy of the compound obtained in example 3.1 in reducing the IOP. As said, this compound has a good affinity towards the CB1 receptors in vitro (example 4) and a CB1 agonist action in vivo (example 5). The intraocular pressure has been determined by a TONOLab Tonometer (Tiolat Oy), as reported by M. E. Pease et al. in J. Glaucoma, 2006 December, 15(6):512-519. The compound was dispersed in the commercial emulsion Tocrisolve™, (Tocris), at a concentration of […] and applied to the eye of old DBA/2J mice (8-10 month age; basal IOP comprised between 19.0 and 22.5 mmHg). The applied emulsion volumes were such that the compound doses resulted, respectively, of 100 μg or 50 μg. WIN 55212-2 was dispersed in Tocrisolve™at the concentration of 5 mg/ml and was the reference cannabinoidergic compound. The determination of the ocular pressure was carried out every 30 minutes up to two hours starting from the administration. The obtained results (average of 6 measurements at each time for experimental groups of 8-10 animals for group/dose) are reported in Table 3. IOP decrease was expressed in percent with respect to the basal value.

The subject of the next series is men. The note with it: local administration in the eye; cited from earlier work.

T2 sequence (P47936 whole entry): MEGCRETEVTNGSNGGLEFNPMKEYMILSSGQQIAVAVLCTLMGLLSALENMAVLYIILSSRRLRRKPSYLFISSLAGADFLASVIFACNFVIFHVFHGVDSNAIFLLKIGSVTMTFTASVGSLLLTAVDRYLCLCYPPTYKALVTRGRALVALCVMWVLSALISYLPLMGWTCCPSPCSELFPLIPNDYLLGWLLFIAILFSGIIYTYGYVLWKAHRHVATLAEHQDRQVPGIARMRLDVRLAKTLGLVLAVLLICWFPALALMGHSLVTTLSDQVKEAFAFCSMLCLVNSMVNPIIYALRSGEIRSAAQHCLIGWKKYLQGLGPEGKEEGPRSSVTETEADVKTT
T1 sequence (P47746 whole entry): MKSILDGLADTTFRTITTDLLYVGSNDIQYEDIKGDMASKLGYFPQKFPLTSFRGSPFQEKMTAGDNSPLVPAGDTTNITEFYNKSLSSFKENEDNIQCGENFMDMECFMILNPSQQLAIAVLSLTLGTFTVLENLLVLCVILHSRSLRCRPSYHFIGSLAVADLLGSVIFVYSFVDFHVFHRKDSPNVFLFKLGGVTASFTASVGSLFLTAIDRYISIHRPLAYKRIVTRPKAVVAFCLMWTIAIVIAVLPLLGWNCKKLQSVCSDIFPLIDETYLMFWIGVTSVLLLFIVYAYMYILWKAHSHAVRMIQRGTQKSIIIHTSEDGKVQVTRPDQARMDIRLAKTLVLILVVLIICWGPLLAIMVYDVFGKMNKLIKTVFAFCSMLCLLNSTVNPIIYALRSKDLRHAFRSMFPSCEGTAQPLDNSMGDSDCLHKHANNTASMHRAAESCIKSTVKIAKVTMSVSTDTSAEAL

Regarding `Cc1csc2c1Cc1c(C(=O)NCC3CCC4CC3C4(C)C)nn(-c3ccc(Cl)cc3Cl)c1-2` (stereo not drawn) [Example 3.7, N-myrtanyl-5-methyl-1-(2′,4′-dichlorophenyl)-1,4-dihydro-thieno[3′,2′:4,5]cyclopenta[1,2-c]pyrazol-3-carboxamide], the melting point fell in the range of 112 to 113 °C. Also, on CB1 receptors, the Ki worked out at 919 ± 226 nM. The same molecule showed an inhibition constant (Ki) at CB2 receptors of 4.5 ± 0.8 nM.

`Cc1c(C(=O)c2cccc3ccccc23)c2cccc3c2n1[C@H](CN1CCOCC1)CO3` [WIN 55212-2]: the “Intraocular Pressure Decrease” value in the series with old DBA/2J mice (50 μg to the eye in Tocrisolve, 30 minutes) came out at 4.3%; in the series with old DBA/2J mice (50 μg to the eye in Tocrisolve, 60 minutes), 3.0%; in the series with old DBA/2J mice (50 μg to the eye in Tocrisolve, 90 minutes), 2.0%; in the series with old DBA/2J mice (50 μg to the eye in Tocrisolve, 120 minutes) it was 1.9%; with old DBA/2J mice (100 μg to the eye in Tocrisolve, 30 minutes), 23.1%; in the series with old DBA/2J mice (100 μg to the eye in Tocrisolve, 60 minutes), 21.3%. The “Intraocular Pressure Decrease” value was determined as 18.1% with old DBA/2J mice (100 μg to the eye in Tocrisolve, 90 minutes) and 13.2% in the series on old DBA/2J mice (100 μg to the eye in Tocrisolve, 120 minutes). Also, the “IOP reduction in men” value with men is on record as “significant IOP reduction”.

Usually Ki stands for the equilibrium dissociation constant of an inhibitor or competing ligand from its target. As a reminder, the melting point is the temperature, or range, at which the solid turns liquid.

Source of the values: patent publication US20100215759A1 (priority 2009, published 2010).
